Data: article PMC6713143, “Design, synthesis and biological activity of selective hCAs inhibitors based on 2-(benzylsulfinyl)benzoic acid scaffold” (Journal of Enzyme Inhibition and Medicinal Chemistry, 2019)
Like-named read-outs stand apart in the source and are kept apart here.

Columns and labels:
hCA IX [1] = target: T1, hCA IX (Homo sapiens, UniProt Q16790); experiment: stopped-flow CO2 hydrase assay, hCA IX; type: biochemical; settings: mean from three determinations, errors 5–10%
T1 construct: made in house
Protocol: (§1) An Applied Photophysics stopped-flow instrument has been used for assaying the CA catalysed CO2 hydration activity. […] The CO2 concentrations ranged from 1.7 to 17 mM for the determination of the kinetic parameters and inhibition constants. In particular, CO2 was bubbled in distilled deionised water for 30 min till saturation. A CO2 kit (Sigma, Milan, Italy) was used to measure the concentration in serially diluted solutions from the saturated one at the same temperature. […] The uncatalyzed rates were determined in the same manner and subtracted from the total observed rates. Stock solutions of inhibitor (1 µM) were prepared in distilled-deionised water and dilutions up to 0.1 nM were done thereafter with the assay buffer. […] The inhibition constants were obtained by non-linear least-squares methods using PRISM 3 and the Cheng-Prusoff equation[29], and represent the average from at least three different determinations. All recombinant CA isoforms were obtained in-house as previously reported[30]^,[31].

hCA I [2] = target: T2, hCA I (Homo sapiens, UniProt P00915); experiment: stopped-flow CO2 hydrase assay, hCA I; type: biochemical; settings: mean from three determinations, errors 5–10%
T2 construct: made in house
T2 sequence (P00915 whole entry): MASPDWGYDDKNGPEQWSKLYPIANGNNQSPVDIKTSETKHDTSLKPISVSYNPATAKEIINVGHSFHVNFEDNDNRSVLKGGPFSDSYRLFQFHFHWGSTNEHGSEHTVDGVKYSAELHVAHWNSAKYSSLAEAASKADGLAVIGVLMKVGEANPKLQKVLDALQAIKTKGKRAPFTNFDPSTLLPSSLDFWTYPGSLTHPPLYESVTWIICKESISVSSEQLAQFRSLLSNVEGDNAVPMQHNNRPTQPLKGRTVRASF
Protocol: as §1

hCA II [3] = target: T3, hCA II (Homo sapiens, UniProt P00918); experiment: stopped-flow CO2 hydrase assay, hCA II; type: biochemical; settings: mean from three determinations, errors 5–10%
T3 construct: made in house
Protocol: as §1

hCA XII [4] = target: T4, hCA XII (Homo sapiens, UniProt O43570); experiment: stopped-flow CO2 hydrase assay, hCA XII; type: biochemical; settings: mean from three determinations, errors 5–10%
T4 construct: made in house
T4 sequence (O43570 25-354): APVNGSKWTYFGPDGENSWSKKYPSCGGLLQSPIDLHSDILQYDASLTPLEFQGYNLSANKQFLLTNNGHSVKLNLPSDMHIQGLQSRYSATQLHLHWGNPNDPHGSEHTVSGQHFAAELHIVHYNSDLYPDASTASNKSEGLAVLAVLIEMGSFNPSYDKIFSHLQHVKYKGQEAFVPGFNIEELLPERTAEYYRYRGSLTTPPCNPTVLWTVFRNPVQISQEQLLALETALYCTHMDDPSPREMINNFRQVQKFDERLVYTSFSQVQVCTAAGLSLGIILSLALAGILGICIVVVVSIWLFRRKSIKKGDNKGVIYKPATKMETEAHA
Protocol: as §1

hCA I [5] = target: T2, hCA I; design: method as in PMID 25407638; settings: lead compound, earlier report; cited from earlier work
hCA II [6] = target: T3, hCA II; design: method as in PMID 25407638; settings: lead compound, earlier report; cited from earlier work
hCA IX [7] = target: T1, hCA IX; design: method as in PMID 25407638; settings: lead compound, earlier report; cited from earlier work
hCA XII [8] = target: T4, hCA XII; design: method as in PMID 25407638; settings: lead compound, earlier report; cited from earlier work

| SMILES | Ki (hCA IX [1]) [µM] | Ki (hCA I [2]) [µM] | Ki (hCA II [3]) [µM] | Ki (hCA XII [4]) [µM] | other results |
| --- | --- | --- | --- | --- | --- |
| CC(=O)c1ccccc1[S+]([O-])Cc1ccccc1 (stereo not shown) [Compound 2] | 2 | > 100 | 63.2 | – | – |
| Nc1ccccc1C(=O)O [Compound 43, anthranilic acid] | > 100 | > 100 | > 100 | > 100 | – |
| CCCCS(=O)(=O)c1ccccc1C(N)=O [Compound 35] | 13.5 | > 100 | > 100 | > 100 | – |
| CNC(=O)c1ccccc1S(=O)(=O)Cc1ccccc1 [Compound 21] | 25.8 | > 100 | 68.2 | – | – |
| CNC(=O)c1ccccc1[S@+]([O-])Cc1ccccc1 [(R)-20] | 22.8 | > 100 | 52.2 | – | – |
| NC(=O)c1ccccc1SCc1ccccc1 [Compound 16] | 0.046 | > 10 | 8.22 | 2.66 | Ki hCA XII (hCA XII [4]): medium-potency inhibitor |
| O=C(Cc1ccccc1)Nc1ccccc1C(=O)O [Compound 42] | > 100 | > 100 | > 100 | > 100 | – |
| CCCCCSc1ccccc1C(N)=O [Compound 36] | 2.7 | > 100 | > 100 | > 100 | – |
| CCCC[S+]([O-])c1ccccc1C(=O)OC (stereo not shown) [Compound 22] | > 100 | > 100 | > 100 | – | Ki hCA IX (hCA IX [1]): inactive; Ki hCA I (hCA I [2]): inactive; Ki hCA II (hCA II [3]): inactive |
| COC(=O)c1ccccc1[S@@+]([O-])Cc1ccc(Cl)cc1 [(S)-11] | 18.1 | > 100 | > 100 | – | – |
| NC(=O)c1ccccc1NCc1ccccc1 [Compound 48] | > 100 | > 100 | > 100 | > 100 | – |
| CCCCCS(=O)(=O)c1ccccc1C(N)=O [Compound 38] | 8.7 | > 100 | > 100 | > 100 | – |
| CCCCSc1ccccc1C(N)=O [Compound 33] | 2.5 | > 100 | > 100 | > 100 | – |
| COC(=O)c1ccccc1SCC(=O)c1ccccc1 [Compound 13] | > 100 | > 100 | > 100 | – | – |
| COC(=O)c1ccccc1S(=O)(=O)CC(=O)c1ccccc1 [Compound 15] | > 100 | > 100 | > 100 | – | – |
| COC(=O)c1ccccc1[S@+]([O-])Cc1ccc(Cl)cc1 [(R)-11] | 1.4 | > 100 | > 100 | – | – |
| COC(=O)c1ccccc1[S@+]([O-])Cc1ccccc1 [(R)-8] | 15.3 | > 100 | 84.9 | – | – |
| C[S+]([O-])c1ccccc1C(N)=O (stereo not shown) [Compound 25] | 34.5 | > 100 | > 100 | > 100 | – |
| CCC[S+]([O-])c1ccccc1C(N)=O (stereo not shown) [Compound 31] | 38.2 | > 100 | > 100 | > 100 | – |

| SMILES | Ki (hCA IX [1]) [µM] | Ki (hCA I [2]) [µM] | Ki (hCA II [3]) [µM] | Ki (hCA XII [4]) [µM] | other results |
| --- | --- | --- | --- | --- | --- |
| O=C(O)c1ccccc1[S+]([O-])Cc1ccccc1 (stereo not shown) [lead compound, 2-(benzylsulfinyl)benzoic acid] | – | – | – | – | Ki (hCA I [5]): > 10 µM; Ki (hCA II [6]): 150 nM; Ki (hCA IX [7]): 1290 nM; Ki (hCA XII [8]): > 10 µM |
| COC(=O)c1ccccc1SCc1ccc(Cl)cc1 [Compound 10] | 1 | > 100 | 45.7 | – | – |
| COC(=O)c1ccccc1NCc1ccccc1 [Compound 45] | > 100 | > 100 | > 100 | > 100 | – |
| CS(=O)(=O)c1ccccc1C(N)=O [Compound 26] | 14 | > 100 | > 100 | > 100 | – |
| CCCC[S+]([O-])c1ccccc1C(N)=O (stereo not shown) [Compound 34] | 36.4 | > 100 | > 100 | > 100 | – |
| COC(=O)c1ccccc1CCc1ccccc1 [Compound 46] | > 100 | > 100 | > 100 | > 100 | – |
| O=C(O)c1ccccc1[S@+]([O-])Cc1ccccc1 [(R)-5] | 1.4 | > 100 | 0.21 | – | – |
| NC(=O)c1ccccc1S(=O)(=O)Cc1ccccc1 [Compound 18] | > 10 | > 10 | 2.67 | 0.066 | Ki hCA IX (hCA IX [1]): completely lost the affinity |
| CCS(=O)(=O)c1ccccc1C(N)=O [Compound 29] | 22.7 | > 100 | > 100 | > 100 | – |
| CCCCC[S+]([O-])c1ccccc1C(=O)OC (stereo not shown) [Compound 23] | > 100 | > 100 | > 100 | – | Ki hCA IX (hCA IX [1]): inactive; Ki hCA I (hCA I [2]): inactive; Ki hCA II (hCA II [3]): inactive |
| NC(=O)c1ccccc1CCc1ccccc1 [Compound 49] | > 100 | > 100 | > 100 | > 100 | – |
| O=C(O)c1ccccc1S(=O)(=O)Cc1ccccc1 [Compound 6] | 2.3 | > 100 | > 100 | – | – |
| CC(=O)c1ccccc1SCc1ccccc1 [Compound 1] | 1.1 | > 100 | > 100 | – | – |
| CCCSc1ccccc1C(N)=O [Compound 30] | > 100 | > 100 | 90.9 | > 100 | – |
| O=C(NO)c1ccccc1NCc1ccccc1 [Compound 51] | > 100 | > 100 | > 100 | > 100 | – |
| O=C(O)c1ccccc1NCc1ccccc1 [Compound 40] | > 100 | > 100 | > 100 | > 100 | – |
| COC(=O)c1ccccc1OCc1ccccc1 [Compound 44] | > 100 | > 100 | > 100 | > 100 | – |
| COC(=O)c1ccccc1S(=O)(=O)Cc1ccccc1 [Compound 9] | 11.4 | > 100 | > 100 | – | – |
| CSc1ccccc1C(N)=O [Compound 24] | 6.5 | > 100 | > 100 | > 100 | – |

| SMILES | Ki (hCA IX [1]) [µM] | Ki (hCA I [2]) [µM] | Ki (hCA II [3]) [µM] | Ki (hCA XII [4]) [µM] | other results |
| --- | --- | --- | --- | --- | --- |
| CC(=O)c1ccccc1S(=O)(=O)Cc1ccccc1 [Compound 3] | 16.4 | > 100 | > 100 | – | – |
| COC(=O)c1ccccc1[S+]([O-])CC(=O)c1ccccc1 (stereo not shown) [Compound 14] | > 100 | > 100 | > 100 | – | – |
| CNC(=O)c1ccccc1SCc1ccccc1 [Compound 19] | 19.8 | > 100 | 86.3 | – | – |
| CCCCC[S+]([O-])c1ccccc1C(N)=O (stereo not shown) [Compound 37] | 27.3 | > 100 | > 100 | > 100 | – |
| CCCS(=O)(=O)c1ccccc1C(N)=O [Compound 32] | 2.3 | > 100 | > 100 | > 100 | – |
| NC(=O)c1ccccc1NC(=O)Cc1ccccc1 [Compound 50] | > 100 | > 100 | > 100 | > 100 | – |
| CCSc1ccccc1C(N)=O [Compound 27] | 16.7 | > 100 | > 100 | > 100 | – |
| CC(=O)c1ccccc1NCc1ccccc1 [Compound 53] | > 100 | > 100 | > 100 | > 100 | – |
| NC(=O)c1ccccc1[S@@+]([O-])Cc1ccccc1 [(S)-17] | 1.9 | > 100 | 51.9 | – | – |
| O=C(O)c1ccccc1OCc1ccccc1 [Compound 39] | > 100 | > 100 | > 100 | > 100 | – |
| COC(=O)c1ccccc1[S@@+]([O-])Cc1ccccc1 [(S)-8] | 20 | > 100 | 65.7 | – | – |
| COC(=O)c1ccccc1S(=O)(=O)Cc1ccc(Cl)cc1 [Compound 12] | 21.1 | > 100 | 40.1 | – | – |
| COC(=O)c1ccccc1SCc1ccccc1 [Compound 7] | 15 | > 100 | 75.2 | – | – |
| O=C(O)c1ccccc1CCc1ccccc1 [Compound 41] | > 100 | > 100 | > 100 | > 100 | – |
| NC(=O)c1ccccc1[S@+]([O-])Cc1ccccc1 [(R)-17] | 2.2 | > 100 | 52.2 | – | – |
| O=C(O)c1ccccc1[S@@+]([O-])Cc1ccccc1 [(S)-5] | 1.2 | > 100 | 0.093 | – | – |
| CC(=O)c1ccccc1OCc1ccccc1 [Compound 52] | > 100 | > 100 | > 100 | > 100 | – |
| CC[S+]([O-])c1ccccc1C(N)=O (stereo not shown) [Compound 28] | 40.9 | > 100 | > 100 | > 100 | – |
| CNC(=O)c1ccccc1[S@@+]([O-])Cc1ccccc1 [(S)-20] | 24.6 | > 100 | 38.9 | – | – |
